Experiment [1] deals with 2008. The experiment is described as follows: Antiproliferative activity against human 2008 ovarian carcinoma cells by MTS assay. Format: functional. For orientation: Formazan colour is commonly taken as a measure of viable cells.
For experiment [2], the system named is MDA-MB-231. The experiment is described as follows: Antiproliferative activity against human MDA-MB-231 breast carcinoma cells by MTS assay. It counts as functional.
Experiment [3] concerns HT-29. The experiment is described as follows: Antiproliferative activity against human HT29 colon carcinoma cells by MTS assay. Format: functional.
The subject of experiment [4] is PC-3. The experiment in a line: Antiproliferative activity against human PC3 prostate carcinoma cells by MTS assay. Format: functional.
For experiment [5], the system named is L1210. The experiment is described as follows: Antiproliferative activity against mouse L1210 leukemia cell line by MTS assay. Format: functional.
Experiment [6] has as its target Cytoplasmic dynein 1 heavy chain 1 (Rattus norvegicus, UniProt P38650). The experiment in a line: Inhibition of MT-stimulated ATPase activity of rat cytoplasmic dynein heavy chain motor domain.

Molecules are shown by their SMILES.

Chain of Cytoplasmic dynein 1 heavy chain 1 (P38650 whole entry, the tested form may be a part): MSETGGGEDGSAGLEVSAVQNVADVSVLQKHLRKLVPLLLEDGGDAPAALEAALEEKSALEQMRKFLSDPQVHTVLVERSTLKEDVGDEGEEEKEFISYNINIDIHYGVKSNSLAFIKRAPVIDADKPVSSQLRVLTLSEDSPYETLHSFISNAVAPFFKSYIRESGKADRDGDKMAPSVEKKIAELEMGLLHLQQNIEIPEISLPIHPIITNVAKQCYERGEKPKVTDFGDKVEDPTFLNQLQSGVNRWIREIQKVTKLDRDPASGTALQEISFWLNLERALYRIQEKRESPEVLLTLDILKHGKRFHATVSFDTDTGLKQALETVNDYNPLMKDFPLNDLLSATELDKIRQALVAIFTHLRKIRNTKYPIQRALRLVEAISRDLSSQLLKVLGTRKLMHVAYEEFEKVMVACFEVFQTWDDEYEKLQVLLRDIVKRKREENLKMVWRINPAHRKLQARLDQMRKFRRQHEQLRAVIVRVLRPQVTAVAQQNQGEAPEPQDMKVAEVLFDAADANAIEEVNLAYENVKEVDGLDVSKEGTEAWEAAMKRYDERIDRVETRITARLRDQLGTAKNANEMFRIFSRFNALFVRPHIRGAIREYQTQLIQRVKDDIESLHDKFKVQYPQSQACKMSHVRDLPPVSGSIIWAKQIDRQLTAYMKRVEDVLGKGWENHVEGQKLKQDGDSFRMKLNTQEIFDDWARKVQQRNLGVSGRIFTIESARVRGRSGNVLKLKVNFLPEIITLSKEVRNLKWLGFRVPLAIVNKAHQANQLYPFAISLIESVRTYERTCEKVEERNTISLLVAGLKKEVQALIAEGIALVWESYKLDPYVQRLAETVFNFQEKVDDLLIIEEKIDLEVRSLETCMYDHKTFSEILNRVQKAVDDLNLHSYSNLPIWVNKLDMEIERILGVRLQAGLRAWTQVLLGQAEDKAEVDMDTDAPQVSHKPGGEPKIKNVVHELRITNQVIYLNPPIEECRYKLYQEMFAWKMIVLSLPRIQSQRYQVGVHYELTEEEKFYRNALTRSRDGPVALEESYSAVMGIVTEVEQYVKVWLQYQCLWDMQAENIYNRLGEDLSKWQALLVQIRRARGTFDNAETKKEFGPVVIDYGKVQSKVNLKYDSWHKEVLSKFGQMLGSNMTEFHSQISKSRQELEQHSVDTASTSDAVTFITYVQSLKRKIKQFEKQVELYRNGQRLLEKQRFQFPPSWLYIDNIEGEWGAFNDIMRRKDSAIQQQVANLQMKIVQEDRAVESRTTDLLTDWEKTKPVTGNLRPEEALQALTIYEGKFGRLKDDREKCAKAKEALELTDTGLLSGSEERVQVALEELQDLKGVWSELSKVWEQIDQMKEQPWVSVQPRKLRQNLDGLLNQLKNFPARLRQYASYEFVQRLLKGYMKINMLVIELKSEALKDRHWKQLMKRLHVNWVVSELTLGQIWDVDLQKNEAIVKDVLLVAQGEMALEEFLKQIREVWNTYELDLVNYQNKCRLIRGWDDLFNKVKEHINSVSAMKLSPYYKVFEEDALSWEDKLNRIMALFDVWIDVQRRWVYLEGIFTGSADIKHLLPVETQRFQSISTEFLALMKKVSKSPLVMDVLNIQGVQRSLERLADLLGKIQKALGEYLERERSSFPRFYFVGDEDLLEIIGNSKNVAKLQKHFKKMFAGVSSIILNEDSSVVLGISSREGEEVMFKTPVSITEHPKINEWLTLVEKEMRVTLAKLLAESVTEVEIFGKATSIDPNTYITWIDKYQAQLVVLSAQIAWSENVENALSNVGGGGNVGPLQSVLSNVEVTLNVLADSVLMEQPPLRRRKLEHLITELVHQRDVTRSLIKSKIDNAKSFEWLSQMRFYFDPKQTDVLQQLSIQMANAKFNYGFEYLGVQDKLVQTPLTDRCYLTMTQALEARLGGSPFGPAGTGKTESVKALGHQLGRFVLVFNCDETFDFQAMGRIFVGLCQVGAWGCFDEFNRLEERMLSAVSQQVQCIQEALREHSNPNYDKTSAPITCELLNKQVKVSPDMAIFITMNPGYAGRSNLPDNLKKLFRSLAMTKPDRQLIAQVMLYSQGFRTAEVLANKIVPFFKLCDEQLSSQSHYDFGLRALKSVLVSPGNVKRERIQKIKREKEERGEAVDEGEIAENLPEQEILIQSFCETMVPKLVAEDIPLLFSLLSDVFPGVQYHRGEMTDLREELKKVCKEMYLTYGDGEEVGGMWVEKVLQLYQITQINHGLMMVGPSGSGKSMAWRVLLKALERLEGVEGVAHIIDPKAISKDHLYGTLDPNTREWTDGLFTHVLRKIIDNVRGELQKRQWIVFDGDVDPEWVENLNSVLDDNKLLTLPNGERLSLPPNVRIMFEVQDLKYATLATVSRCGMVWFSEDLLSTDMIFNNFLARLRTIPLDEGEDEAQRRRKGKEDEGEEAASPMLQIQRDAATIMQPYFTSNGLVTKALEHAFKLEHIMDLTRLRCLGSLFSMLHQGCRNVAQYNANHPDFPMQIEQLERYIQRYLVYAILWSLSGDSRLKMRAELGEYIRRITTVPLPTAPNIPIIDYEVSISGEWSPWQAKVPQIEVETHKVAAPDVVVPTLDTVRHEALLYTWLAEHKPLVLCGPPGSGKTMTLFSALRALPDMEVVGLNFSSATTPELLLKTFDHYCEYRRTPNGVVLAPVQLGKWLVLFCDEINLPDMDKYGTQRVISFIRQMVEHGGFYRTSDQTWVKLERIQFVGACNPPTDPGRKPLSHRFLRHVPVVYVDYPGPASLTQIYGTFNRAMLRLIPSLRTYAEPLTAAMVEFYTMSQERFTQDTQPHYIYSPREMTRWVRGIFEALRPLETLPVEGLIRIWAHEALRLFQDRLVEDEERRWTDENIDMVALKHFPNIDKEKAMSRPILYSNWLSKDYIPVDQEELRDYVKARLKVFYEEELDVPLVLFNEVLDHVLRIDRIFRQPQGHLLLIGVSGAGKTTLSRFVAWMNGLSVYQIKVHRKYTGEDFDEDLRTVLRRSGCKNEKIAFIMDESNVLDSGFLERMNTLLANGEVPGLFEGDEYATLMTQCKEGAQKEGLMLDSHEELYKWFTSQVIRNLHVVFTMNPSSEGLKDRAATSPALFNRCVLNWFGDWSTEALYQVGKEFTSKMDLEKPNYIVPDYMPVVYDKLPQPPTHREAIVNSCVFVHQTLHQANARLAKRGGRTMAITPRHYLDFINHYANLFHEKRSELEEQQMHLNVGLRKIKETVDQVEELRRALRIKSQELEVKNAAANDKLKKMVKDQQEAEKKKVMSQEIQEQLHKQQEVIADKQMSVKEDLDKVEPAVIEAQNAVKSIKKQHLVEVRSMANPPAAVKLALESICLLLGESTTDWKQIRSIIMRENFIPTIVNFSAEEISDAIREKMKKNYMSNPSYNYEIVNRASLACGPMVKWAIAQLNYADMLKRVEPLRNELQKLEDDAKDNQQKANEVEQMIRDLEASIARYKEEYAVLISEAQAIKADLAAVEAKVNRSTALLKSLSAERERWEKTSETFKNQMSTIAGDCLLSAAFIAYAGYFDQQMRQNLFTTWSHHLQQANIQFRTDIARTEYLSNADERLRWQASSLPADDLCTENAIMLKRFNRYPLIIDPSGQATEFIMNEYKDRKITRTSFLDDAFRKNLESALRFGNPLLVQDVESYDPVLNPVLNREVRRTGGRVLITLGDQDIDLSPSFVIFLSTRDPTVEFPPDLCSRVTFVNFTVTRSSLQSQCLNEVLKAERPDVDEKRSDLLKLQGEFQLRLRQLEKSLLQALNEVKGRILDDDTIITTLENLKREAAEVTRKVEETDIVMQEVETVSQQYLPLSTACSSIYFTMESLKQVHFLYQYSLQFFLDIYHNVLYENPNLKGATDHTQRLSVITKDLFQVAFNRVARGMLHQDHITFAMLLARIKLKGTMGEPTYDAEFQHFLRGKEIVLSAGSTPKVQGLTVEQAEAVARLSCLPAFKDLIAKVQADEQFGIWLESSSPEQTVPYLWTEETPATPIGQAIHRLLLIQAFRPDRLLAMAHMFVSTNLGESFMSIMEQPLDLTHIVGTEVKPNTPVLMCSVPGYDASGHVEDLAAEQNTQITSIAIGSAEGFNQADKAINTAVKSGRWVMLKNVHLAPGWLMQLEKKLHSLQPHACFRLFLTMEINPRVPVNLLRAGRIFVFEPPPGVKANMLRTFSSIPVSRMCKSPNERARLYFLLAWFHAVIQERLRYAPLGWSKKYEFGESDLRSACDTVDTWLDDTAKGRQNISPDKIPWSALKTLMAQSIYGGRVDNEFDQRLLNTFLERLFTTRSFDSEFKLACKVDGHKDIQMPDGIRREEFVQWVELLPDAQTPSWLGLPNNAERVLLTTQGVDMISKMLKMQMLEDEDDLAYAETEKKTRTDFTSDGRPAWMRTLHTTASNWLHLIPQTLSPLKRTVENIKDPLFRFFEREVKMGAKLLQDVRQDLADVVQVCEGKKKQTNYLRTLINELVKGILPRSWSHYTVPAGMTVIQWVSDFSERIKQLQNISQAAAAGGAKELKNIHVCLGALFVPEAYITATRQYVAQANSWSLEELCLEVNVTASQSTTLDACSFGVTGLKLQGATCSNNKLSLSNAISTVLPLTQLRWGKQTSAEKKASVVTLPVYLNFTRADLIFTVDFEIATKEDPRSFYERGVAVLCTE

Consider `COc1ccc(CCNC(=O)/C(Cc2ccc(OCCCN)c(Br)c2)=N\O)cc1`, for which the GI50 was 31 µM in experiment [1]; 48 µM in experiment [2]; 30 µM in experiment [3]; 39 µM in experiment [4]; 9.9 µM in experiment [5].

As to `COc1ccc(CCNC(=O)/C(Cc2cc(Br)cc(Br)c2OCCCN)=N\O)cc1`, the GI50 was found to be 25 µM in experiment [1]; 8.8 µM in experiment [2]; 4.9 µM in experiment [3]; 35 µM in experiment [4]; 6.2 µM in experiment [5].

For the compound `NCCCOc1c(Cl)cc(Cl)cc1C/C(=N/O)C(=O)NCCc1c[nH]c2ccccc12`, the GI50 in experiment [1] stood at 5.7 µM; in experiment [2], 5.3 µM; in experiment [3], 6 µM; in experiment [4], 5 µM; in experiment [5], 5.8 µM. Also, the IC50 in experiment [6] was greater than 50 µM.

Regarding `NCCCOc1c(Cl)cc(Cl)cc1C/C(=N/O)C(=O)NCCc1ccccc1`, the 50% growth inhibitory concentration (GI50) in experiment [1] came out at 8.8 µM; in experiment [2] it was 7.6 µM; in experiment [3] it was 5.6 µM; in experiment [4], 31 µM; in experiment [5], 7.5 µM.

For the compound `NCCCOc1ccc(C/C(=N/O)C(=O)NCCc2ccc(Cl)cc2)cc1Br`, the GI50 in experiment [1] is 27 µM; in experiment [2] it was 26 µM; in experiment [3], 27 µM; in experiment [4], 33 µM; in experiment [5] it was 6.5 µM. The compound also yielded an IC50 in experiment [6] greater than 50 µM.

In the case of `NCCCOc1c(Br)cc(Br)cc1C/C(=N/O)C(=O)NCCc1ccc(Cl)cc1`, the GI50 in experiment [1] was 5.6 µM; in experiment [2] it was 5.6 µM; in experiment [3] it was 5.3 µM; in experiment [4], 15 µM; in experiment [5] it was 6.3 µM. The compound further showed a half-maximal inhibitory concentration (IC50) in experiment [6] greater than 50 µM.

With `COc1ccc(CCNC(=O)/C(Cc2cc(Cl)cc(Cl)c2OCCCN)=N\O)cc1`, the GI50 in experiment [1] is 29 µM; in experiment [2] it was 24 µM; in experiment [3], 6.2 µM; in experiment [4], 32 µM; in experiment [5] it was 6.9 µM.

`NCCCOc1ccc(C/C(=N/O)C(=O)NCCc2ccccc2)cc1Br`: the GI50 in experiment [1] is 30 µM; in experiment [2], greater than 50 µM; in experiment [3], 27 µM; in experiment [4], 31 µM; in experiment [5], 6.2 µM.

Take `NCCCOc1c(Br)cc(C/C(=N/O)C(=O)NCCc2c[nH]c3ccccc23)cc1Br`: the GI50 in experiment [1] came out at 27 µM; in experiment [2], 24 µM; in experiment [3] it was 26 µM; in experiment [4], 26 µM; in experiment [5] it was 5.8 µM.

In the case of `NCCCOc1c(Cl)cc(Cl)cc1C/C(=N/O)C(=O)NCCc1ccc(Cl)cc1`, the GI50 was determined as 5.4 µM in experiment [1]; 5.2 µM in experiment [2]; 5.5 µM in experiment [3]; 7.8 µM in experiment [4]; 5.9 µM in experiment [5].

On to `NCCCOc1c(Br)cc(Br)cc1C/C(=N/O)C(=O)NCCc1c[nH]c2ccccc12`, for which the GI50 in experiment [1] came to 7.5 µM; in experiment [2] it was 6.7 µM; in experiment [3], 6 µM; in experiment [4], 31 µM; in experiment [5], 5.4 µM. Also, the IC50 in experiment [6] is greater than 50 µM.

For the compound `NCCCOc1c(Br)cc(C/C(=N/O)C(=O)NCCc2ccccc2)cc1Br`, the GI50 in experiment [1] came to 29 µM; in experiment [2] it was 27 µM; in experiment [3], 31 µM; in experiment [4], 31 µM; in experiment [5], 6.4 µM.

Consider `NCCCOc1c(Br)cc(Br)cc1C/C(=N/O)C(=O)NCCc1ccccc1`, for which the GI50 in experiment [1] turned out to be 19 µM; in experiment [2], 5.7 µM; in experiment [3], 5.3 µM; in experiment [4], 19 µM; in experiment [5], 6.3 µM.

Turning to `NCCCOc1ccc(C/C(=N/O)C(=O)NCCc2c[nH]c3ccccc23)cc1Br`, the GI50 in experiment [1] stood at 26 µM; in experiment [2], 25 µM; in experiment [3], 30 µM; in experiment [4] it was 32 µM; in experiment [5] it was 7.6 µM. In experiment [6], this compound came in with a half-maximal inhibitory concentration (IC50) greater than 50 µM.

`COc1ccc(CCNC(=O)/C(Cc2cc(Br)c(OCCCN)c(Br)c2)=N\O)cc1`: the GI50 in experiment [1] worked out at 24 µM; in experiment [2], 17 µM; in experiment [3] it was 20 µM; in experiment [4] it was 21 µM; in experiment [5], 2.8 µM.

As to `NCCCOc1c(Br)cc(C/C(=N/O)C(=O)NCCc2ccc(Cl)cc2)cc1Br`, the GI50 was 29 µM in experiment [1]; 27 µM in experiment [2]; 31 µM in experiment [3]; 30 µM in experiment [4]; 7.8 µM in experiment [5].

As for `C=C/C=C\[C@H](C)[C@H](OC(N)=O)[C@@H](C)[C@H](O)[C@@H](C)C/C(C)=C\[C@H](C)[C@@H](O)[C@@H](C)/C=C\[C@@H](O)C[C@@H]1OC(=O)[C@H](C)[C@@H](O)[C@H]1C` [DISERMOLIDE], the GI50 in experiment [1] amounted to 0.0027 µM; in experiment [2], 0.04 µM; in experiment [3], 0.028 µM; in experiment [4], 0.052 µM; in experiment [5], 0.0092 µM.

Take `CCCCCCCCCCCCCC(=O)NCCCOc1c(Br)cc(C/C(=N/O)C(=O)NCCc2c[nH]c(N)n2)cc1Br` [LIPOPUREALIN A]: the GI50 came out at 28 µM in experiment [1]; 28 µM in experiment [2]; 29 µM in experiment [3]; 30 µM in experiment [4]; 9 µM in experiment [5]. In addition, the IC50 in experiment [6] is greater than 50 µM.

In the case of `CC(C)CCCCCCCCCCCC(=O)NCCCOc1c(Br)cc(C/C(=N/O)C(=O)NCCc2c[nH]c(N)n2)cc1Br` [LIPOPUREALIN B], the GI50 stood at 29 µM in experiment [1]; 28 µM in experiment [2]; 30 µM in experiment [3]; 25 µM in experiment [4]; 12 µM in experiment [5].

`CCCCCCCCCCCCCCCC(=O)NCCCOc1c(Br)cc(C/C(=N/O)C(=O)NCCc2c[nH]c(N)n2)cc1Br` [LIPOPUREALIN C]: the GI50 is 5.7 µM in experiment [1]; 7 µM in experiment [2]; 20 µM in experiment [3]; 32 µM in experiment [4]; 9.7 µM in experiment [5].

`NCCCOc1c(Br)cc(C/C(=N/O)C(=O)NCCc2c[nH]c(N)n2)cc1Br` [PUREALIDIN A]: the GI50 in experiment [1] was greater than 50 µM; in experiment [2], greater than 50 µM; in experiment [3] it was greater than 50 µM; in experiment [4] it was greater than 50 µM; in experiment [5], 4.7 µM. The IC50 in experiment [6] came out at 42 µM.

`COC1=C(Br)[C@@H](O)[C@]2(C=C1Br)CC(C(=O)NCCCOc1c(Br)cc(C/C(=N/O)C(=O)NCCc3c[nH]c(N)n3)cc1Br)=NO2` [PUREALIN]: the GI50 is greater than 50 µM in experiment [1]; greater than 50 µM in experiment [2]; greater than 50 µM in experiment [3]; greater than 50 µM in experiment [4]; 3.2 µM in experiment [5]. For the same compound, the IC50 in experiment [6] worked out at 35 µM.

The GI50 is the concentration that inhibits growth by half. Usually IC50 stands for the point on the concentration scale where inhibition reaches its midpoint. Low values mean greater potency, high ones weaker potency.

For the origin of these results see ChEMBL document CHEMBL1139012, “Synthesis and biological evaluation of purealin and analogues as cytoplasmic dynein heavy chain inhibitors” (J Med Chem, 2006).
